# Test results taken from patent US4598081A, “1,3-dioxo-1H-benz(de)isoquinoline-2(3H) butyric acid, pharmacologically acceptable salts thereof and compositions containing the same for treatment of diabetes mellitus complications” (Nauchno-Issledovatelsky Institut Endokrinologii I Obmena …, priority 1985, dated 1986).
# Entries after “also recorded” stand apart in the source; their conditions may differ. Structures can show the parent of a compound that is named as a salt.
# Legend:
# [1] = system: basal membrane of the muscle capillaries; experiment: thickness of capillary basal membrane of limb muscles (electron microscope) in rats with alloxan diabetes; format: in vivo, Wistar rats; details: for average thickness of the capillary basal membrane of the limb muscles, after administration (M): rats, alloxan diabetes, end of the experiment; for biological activity compared with 1,3-dioxo-1H-benz(de)isoquinoline-2(3H)acetic acid: comparison with prior art compound; for thickness of the basal membrane of the muscle capillaries: after treatment
# [2] = system: white mice, rats, and dogs; experiment: acute ("high") toxicity, symptoms and overall assessment in mice, rats and dogs
# Description: (§1) Mature animals both male and female, weighting 18 to 22 g (white mice), 180 to 220 g (rats), 11 to 15 kg (dogs) were used for said experiments.
# (§2) The drug was introduced in the form of a starch suspension through a gastric tube.
# (§3) Each dose being examined was tested on 5-6 animals.
# (§4) LD50 determined by the Lichfield and Wilcoxon method, or the Van der Waerden method was used as an index of high toxicity. The animals were kept under observation for 5 days.
# Rats [3] = experiment: acute ("high") toxicity, peroral, rats
# Description: as §1, §2, §3, §4
# Rats [4] = details: rat, in vivo
# Description: (§5) The experiments were performed on rats, rabbits, and dogs.
# (§6) In addition, the action of the proposed drug on the carbohydrate and uropoiesis functions of the liver was also examined.
# (§7) The above indices were examined at the beginning of the experiment and then after 1, 2, 3, 4, 5, and 6 months.
# (§8) At the end of the experiments there were carried out pathomorphological examinations of the lungs, heart, liver, kidneys, adrenal glands, spleen, lymph nodes, intestine, stomach, pancreas, and thyroid glands.
# (§9) On completion of the experiment (six months) the experimental animals were killed: the dogs were killed with thiopental, the rabbits with aeroembolism, and the rats with diethyl ether. Thereafter, the lungs, heart, liver, kidneys, adrenal glands, spleen, lymph nodes, intestine, pancreas and thyroid gland of the killed animals were examined. The material thus obtained was fixed in formole. There were prepared paraffin sections which were then stained with hematoxylin and eosin.
# rats, rabbits, and dogs = details: in vivo
# Description: as §5, §6, §7, §8, §9
# aldose reductase = experiment: activity of aldose reductase in tissues of animals with alloxan diabetes; format: in vivo, Wistar rats; details: for Activity of aldose reductase: alloxan diabetes + compound; for inhibition of aldose reductase: tissues of the experimental animals
# Description: (§10) The experiments were conducted on Wistar rats (males) having a weight of 140 to 160 g. The diabetes was caused by a single-time hypodermic injection of alloxan ("Chemapol") in a dose of 150 mg per kg of body weight.
# (§11) The glood glucose was determined by applying a glucoseoxidase method, cholesterine by […], aldose reductase by the method of Hayman and Kinoshita, sorbitol by a sorbitol-dehydrogenase method.
# Dogs [5] = experiment: chronic toxicity, 6 months peroral, dogs; details: in the dogs only
# Description: as §5, §6, §7, §8, §9
# [6] = solubility of the acid and its salts; format: physicochemical
# [7] = blood indices (fructose, cholesterin, glucose) in rats with alloxan diabetes; format: in vivo, Wistar rats
# Description: as §10, §11
# [8] = system: sorbitol and fructose in tissues; experiment: sorbitol and fructose in tissues of animals with alloxan diabetes; format: in vivo, Wistar rats; details: for Fructose / Sorbitol: alloxan diabetes
# Description: as §10, §11
# White mice = experiment: acute ("high") toxicity, peroral, white mice
# Description: as §1, §2, §3, §4
# [9] = system: rats having alloxan diabetes; experiment: histological examination and biomicroscopy in rats with prolonged alloxan diabetes; format: in vivo, Wistar rats; details: for biochemical and morphological indices: experimental animals
# Description: The diabetes was caused by a single-time hypodermic injection of alloxan ("Chemapol") in a dose of 150 mg per kg of body weight.
# Biomicroscopy of the conjunctiva was effected with the aid of a microscope fitted with a camera and a flash lamp.
# For histological examination pieces of the kidney, liver and miocardium were fixed in 10% neutral formaline dehydrated in alcohol, and the paraffin sections were stained with hematoxylin and eosin, and also by the Van-Gizon method.
# Dogs [10] = experiment: acute ("high") toxicity, peroral, dogs; details: dosage 5500
# Description: as §1, §2, §3, §4
smiles,measurement,setting,value
"O=C(O)CN1C(=O)c2cccc3cccc(c23)C1=O [1,3-dioxo-1H-benz(de)isoquinoline-2(3H)acetic acid, reference compound]","average thickness of the capillary basal membrane of the limb muscles, after administration (M)",[1],112 nanometers
"O=C(O)CCCN1C(=O)c2cccc3cccc(c23)C1=O [1,3-dioxo-1H-benz(de)isoquinoline-2(3H)butyric acid]","time until animals laid down on the side, comatose",[2]; acute lethal poisoning,6 to 8 h
same,time within which the animals died,"[2]; as a rule, during the first 24-26 hours",24 to 26 h
same,overall acute toxicity assessment,[2]; peroral,substance with low-toxicity
same,Percentage of animal death (died/in group),Rats [3]; dosage 3000,0/5
same,Percentage of animal death (died/in group),Rats [3]; dosage 3500,2/5
same,Percentage of animal death (died/in group),Rats [3]; dosage 4000,1/4
same,Percentage of animal death (died/in group),Rats [3]; dosage 4500,3/5
same,Percentage of animal death (died/in group),Rats [3]; dosage 5000,4/7
same,Percentage of animal death (died/in group),Rats [3]; dosage 5500,4/5
same,Percentage of animal death (died/in group),Rats [3]; dosage 6000,5/5
same,"change in blood-formation function, composition of the peripheric blood and urogenous function of the liver",Rats [4],did not lead to a change
same,changes in the anthropological data,"rats, rabbits, and dogs",no changes in the anthropological data
same,irritating action on the liver and kidneys,"rats, rabbits, and dogs",slight non-specific irritating action on the liver and kidneys
same,lesions in the liver and kidneys,"rats, rabbits, and dogs",slight lesions in the liver and kidneys
same,lesions on dissection,"rats, rabbits, and dogs",no lesions
same,local lesion in the liver and kidneys,"rats, rabbits, and dogs",slight local lesion in the liver and kidneys
same,morphological lesions in organs,"rats, rabbits, and dogs",did not cause morphological lesions in many organs
same,Activity of aldose reductase,aldose reductase; Aorta,7.4 ± 0.8 μmol substruct. per mg of protein
same,Activity of aldose reductase,aldose reductase; Cryst. lens,3.4 ± 0.30 μmol substruct. per mg of protein
same,Activity of aldose reductase,aldose reductase; Nerve,25.5 ± 2.1 μmol substruct. per mg of protein
same,inhibition of aldose reductase,aldose reductase,inhibiting properties with respect to aldose reductase; also recorded: inhibitors of aldose reductase
same,vessel permeability in the renal glomerulus,Dogs [5],elevated vessel permeability in the renal glomerulus
same,solubility in alcohol,"[6]; alcohol, when heated",soluble
same,solubility in dimethyl-formamide,"[6]; dimethyl-formamide, when heated",soluble
same,solubility in soda and alkali solutions,[6]; soda and alkali solutions,soluble in soda and alkali solutions
same,solubility in water,[6],water-insoluble
same,change of the level of glucose (blood),[7],did not change
same,cholesterin (blood),[7]; p<0.005,100±7.1 mg %
same,fructose (blood),[7]; p<0.02,2.26±0.16 mg %
same,level of glucose (blood),[7]; p<0.5,340.1±27.8 mg %
same,decrease of thickness of the basal membrane of the muscle capillaries,"[1]; 50 mg per kg per day, 30 days",almost one and a half times
same,microangiopathy,"[1]; 50 mg per kg per day, 30 days",Microangiopathy became less pronounced
same,"biological activity compared with 1,3-dioxo-1H-benz(de)isoquinoline-2(3H)acetic acid",[1],biologically more active than the prior art compound
same,thickness of the basal membrane of the muscle capillaries,[1]; rats having alloxan diabetes for 12 months,100-120 nm
same,thickness of the basal membrane of the muscle capillaries,[1]; rats having six months alloxan diabetes,65 nm
same,"average thickness of the capillary basal membrane of the limb muscles, after administration (M)",[1],98.3 nanometers
same,Fructose,[8]; Cryst. lens,2.85 ± 0.56 μmol per g of tissue
same,Sorbitol,[8]; Cryst. lens,7.18 ± 0.65 μmol per g of tissue
same,Fructose,[8]; Nerve,3.25 ± 0.73 μmol per g of tissue
same,Sorbitol,[8]; Nerve,9.8 ± 0.94 μmol per g of tissue
same,quantity of sorbitol and fructose in the examined tissues,[8]; Table 5,has decreased
same,Percentage of animal death (died/in group),White mice; dosage 3750,3/5
same,Percentage of animal death (died/in group),White mice; dosage 4000,2/5
same,Percentage of animal death (died/in group),White mice; dosage 4500,4/5
same,Percentage of animal death (died/in group),White mice; dosage 4750,5/5
same,Percentage of animal death (died/in group),White mice; dosage 5000,3/5
same,Percentage of animal death (died/in group),White mice; dosage 5250,5/5
same,kidney histology,"[9]; 50 mg per kg per day, 30 days","renal glomerulus became more plethoric, the epithelium of the tubules had a more clearly defined boundary, and the protoplasm became less vacuolized and granular"
same,liver histology,"[9]; 50 mg per kg per day, 30 days",structure of the lobes and radial location of trabeculas in the liver became clearly defined
same,myocardium histology,"[9]; 50 mg per kg per day, 30 days",Dystrophic lesion in the myocardium was less pronounced
same,vascular pattern of the iris,"[9]; 50 mg per kg per day, 30 days","Inflation and convolution of the vessels decreased, and the blood flow became homogeneous"
same,biochemical and morphological indices,[9],considerable improvements
same,Percentage of animal death (died/in group),Dogs [10],3/5
"O=C(O)CCCN1C(=O)c2cccc3cccc(c23)C1=O [Potassium salt, potassium salt of 1,3-dioxo-1H-benz(de)isoquinoline-2(3H)butyric acid]",inhibition of aldose reductase,aldose reductase,inhibiting properties with respect to aldose reductase; also recorded: inhibitors of aldose reductase
same,solubility in benzole,[6],insoluble
same,solubility in ethyl alcohol,[6],soluble
same,solubility in water,[6],readily soluble
same,"biological activity compared with 1,3-dioxo-1H-benz(de)isoquinoline-2(3H)acetic acid",[1],biologically more active than the prior art compound
same,"average thickness of the capillary basal membrane of the limb muscles, after administration (M)",[1],98.6 nanometers
same,biochemical and morphological indices,[9],considerable improvements
"O=C(O)CCCN1C(=O)c2cccc3cccc(c23)C1=O [Sodium salt, sodium salt of 1,3-dioxo-1H-benz(de)isoquinoline-2(3H)butyric acid]",inhibition of aldose reductase,aldose reductase,inhibiting properties with respect to aldose reductase; also recorded: inhibitors of aldose reductase
same,solubility in benzole,[6],insoluble
same,solubility in ethyl alcohol,[6],slightly soluble
same,solubility in water,[6],readily soluble
same,"biological activity compared with 1,3-dioxo-1H-benz(de)isoquinoline-2(3H)acetic acid",[1],biologically more active than the prior art compound
same,"average thickness of the capillary basal membrane of the limb muscles, after administration (M)",[1],102 nanometers
same,biochemical and morphological indices,[9],considerable improvements
